Test results from patent US11884669B1, “Pyrrolo[3,2-c][1,7]naphthyridine-2-carboxylic acid compounds as CK2 inhibitors” (KING FAISAL UNIVERSITY, priority 2023, dated 2024).

How the values were obtained:
[1] = target: T1, recombinant human CK2 (RRββ-holoenzyme) (Homo sapiens, UniProt P68400); test: CK2 Kinase Assay (33P-ATP, filter plate); format: biochemical; settings: final ATP concentration 15 μM, 10 min at 30° C.; read-out: protein kinase CK2 IC50
T1 construct: purchased Millipore
Description: CK2 Kinase Assay was conducted using the protocol as described in Pierre F. et al; J. Med. Chem. 2011, 54, 635-654. The tested compounds in aqueous solution were added at a volume of 10 μL to a reaction mixture comprising 10 μL of assay dilution buffer (ADB; 20 mM MOPS, pH 7.2, 25 mM β-glycerol phosphate, 5 mM EGTA, 1 mM sodium orthovanadate, and 1 mM dithiothreitol), 10 μL of substrate peptide (RRRDDDSDDD, dissolved in ADB at a concentration of 1 mM), 10 μL of recombinant human CK2 (RRββ-holoenzyme, 25 ng dissolved in ADB; Millipore). Reactions were initiated by the addition of 10 μL of ATP solution (90% 75 mMMgCl2, 75 μM ATP (final ATP concentration: 15 μM) dissolved in ADB; 10% [γ-33P] ATP (stock 1mCi/100 μL; 3000 Ci/mmol (Perkin-Elmer) and maintained for 10 min at 30° C. The reactions were quenched with 100 μL of 0.75% phosphoric acid and then transferred to and filtered through a phosphor cellulose filter plate (Millipore). After washing each well five times with 0.75% phosphoric acid, the plate was dried under vacuum for 5 min and, following the addition of 15 μL of scintillation fluid to each well, the residual radioactivity was measured using a Wallac […]. The IC50 values were derived from eight concentrations of test inhibitors.

MDA-MB-231 (breast) = test: In vitro cytotoxic activity MTT assay, MDA-MB-231; format: cell-based; settings: Homo sapiens, 96 hours exposure, read-out: IC50, 50% inhibition of cell proliferation
Description: (§1) Compounds 1-16 were screened for their in vitro cytotoxic activity utilizing a 3-(4,5-dimethyl-thiazol-2-yl)-2,5-diphenyltetrazolium bromide (MTT) assay against selected cancer human cell lines consisting of PC3 (prostate), HCT116 (colon), A375 (melanoma), H1299 (lung), MIAPaCa-2 (pancreas), HL60 (leukemia), MCF7 (breast), MDA-MB-231 (breast) (T. Mosmann, J. Immunol. Meth., 1983, 65, 55-63). The cells were cultured at 37° C. in RMPI1640 medium supplemented with 10% fetal bovine serum, 50 IU/mL penicillin, and 50 μg/mL streptomycin in a 5% CO2 incubator. All cells were sub-cultured 3 times/week by trypsinisation. Viable cells were seeded and allowed to adhere for 12 h before a test drug was added in 96-well plates at an initial density of 1.0×10^5 cells/mL. Tumor cell lines were separately exposed to various concentrations of the tested compounds followed by incubation at a temperature of 37° C. during 96 h inside a medium of fresh RMPI 1640. Cells were subsequently incubated at 37° C. using MTT at 0.5 mg/mL during 4 h. After removal of supernatant, formazan crystals were dissolved in isopropanol and the optical density was measured at 570 nm. CX-4945 was used as a positive control.

HL60 (leukemia) = test: In vitro cytotoxic activity MTT assay, HL60; format: cell-based; settings: Homo sapiens, HL-60, 96 hours exposure, read-out: IC50, 50% inhibition of cell proliferation
Description: as §1

PC3 (prostate) = test: In vitro cytotoxic activity MTT assay, PC3; format: cell-based; settings: Homo sapiens, 96 hours exposure, read-out: IC50, 50% inhibition of cell proliferation
Description: as §1

MIAPaCa-2 (pancreas) = test: In vitro cytotoxic activity MTT assay, MIAPaCa-2; format: cell-based; settings: Homo sapiens, MIA PaCa-2, 96 hours exposure, read-out: IC50, 50% inhibition of cell proliferation
Description: as §1

HCT116 (colon) = test: In vitro cytotoxic activity MTT assay, HCT116; format: cell-based; settings: Homo sapiens, HCT-116, 96 hours exposure, read-out: IC50, 50% inhibition of cell proliferation
Description: as §1

A375 (melanoma) = test: In vitro cytotoxic activity MTT assay, A375; format: cell-based; settings: Homo sapiens, A-375, 96 hours exposure, read-out: IC50, 50% inhibition of cell proliferation
Description: as §1

H1299 (lung) = test: In vitro cytotoxic activity MTT assay, H1299; format: cell-based; settings: Homo sapiens, NCI-H1299, 96 hours exposure, read-out: IC50, 50% inhibition of cell proliferation
Description: as §1

MCF7 (breast) = test: In vitro cytotoxic activity MTT assay, MCF7; format: cell-based; settings: Homo sapiens, 96 hours exposure, read-out: IC50, 50% inhibition of cell proliferation
Description: as §1

T1 sequence (P68400 whole entry): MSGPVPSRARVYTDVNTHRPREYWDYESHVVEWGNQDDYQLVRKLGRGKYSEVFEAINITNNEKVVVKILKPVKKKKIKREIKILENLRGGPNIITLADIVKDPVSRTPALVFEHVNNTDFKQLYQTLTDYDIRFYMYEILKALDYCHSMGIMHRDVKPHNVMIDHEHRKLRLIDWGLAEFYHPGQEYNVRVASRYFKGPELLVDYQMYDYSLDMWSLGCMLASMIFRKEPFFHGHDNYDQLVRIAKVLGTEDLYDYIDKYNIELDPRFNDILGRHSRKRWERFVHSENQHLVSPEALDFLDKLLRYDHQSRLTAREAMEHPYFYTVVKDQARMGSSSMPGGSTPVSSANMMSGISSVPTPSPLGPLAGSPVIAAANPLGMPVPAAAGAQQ
T1 sequence (P67870 whole entry partner): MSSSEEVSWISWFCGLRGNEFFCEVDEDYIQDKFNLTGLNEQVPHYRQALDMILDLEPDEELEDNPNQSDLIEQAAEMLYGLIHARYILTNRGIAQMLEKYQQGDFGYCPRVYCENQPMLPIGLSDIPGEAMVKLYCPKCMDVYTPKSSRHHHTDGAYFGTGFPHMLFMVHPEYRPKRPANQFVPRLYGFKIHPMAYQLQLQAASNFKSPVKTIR

O=C(O)c1cc2c(Nc3cccc(Cl)c3)nc3cnccc3c2[nH]1 [Example 1, 4-((3-chlorophenyl)amino)-1H-pyrrolo[3,2-c][1,7]naphthyridine-2-carboxylic acid]
IC50 [1]: 31 nM | IC50 (MDA-MB-231 (breast)): 3500 nM | IC50 (HL60 (leukemia)): 2000 nM | IC50 (PC3 (prostate)): 2300 nM | IC50 (MIAPaCa-2 (pancreas)): 1400 nM | IC50 (HCT116 (colon)): 1100 nM | IC50 (A375 (melanoma)): 3200 nM | IC50 (H1299 (lung)): 1600 nM | IC50 (MCF7 (breast)): 3900 nM
